Patent US5212165A, “Method for rehabilitating the vasorelaxant action of the coronary arteries impaired through atherosclerosis or hypercholesterolemia employing an ACE inhibitor” (E. R. Squibb & Sons, Inc., priority 1989, dated 1993)
“Also recorded” adds a separate entry of the source.

How the values were obtained:
[1] = test system: alpha-adrenoceptor (isolated iliac arteries); experiment: Contractile responses to phenylephrine of isolated iliac arteries from cynomolgus monkeys; parameters: species or system cynomolgus (Macaca fascicularis) monkeys
Description: (§1) Twenty-four male cynomolgus (Macaca fascicularis) monkeys were divided into four groups of six animals each. During the course of the study, one of the control monkeys was sacrificed due to ill health unrelated to the study. Each group was fed a different diet for six months. The control group ate a normal diet of monkey biscuit. The cholesterol group ate a specially formulated monkey diet containing cholesterol. The cholesterol +low captopril group ate the cholesterol diet supplemented with captopril (50 mg/kg divided into two daily doses). The cholesterol+high captopril group ate the cholesterol diet and a higher total dose of captopril (100 mg/kg divided into two daily doses).
(§2) The monkeys were sedated with an intramuscular injection of ketamine (10 mg/kg), then anesthetized with pentobarbital (25 mg/kg). The iliac arteries were carefully dissected, cleaned of surrounding connective tissue, and refrigerated overnight for use the following day.
(§3) On the day of the experiment, three iliac rings (3 mm wide) from each animal were cut and mounted for isometric force recording. Each ring was attached to a micrometer for the control of muscle length and to a Grass FT.03 force transducer and Grass 7D recorder. The rings were placed in warm (37° C.), oxygenated, physiological salt solution (PSS) of the following composition (in mM): 140.0 NaCl, 4.7 KCl, 1.2 MgSO4, 1.6 CaCl2, 1.2 NaH2 PO4, 5.6 D-glucose, 2.0 2-(N-morpholino)propanesulfonic acid (MOPS, pH 7.4 at 37° C.), and 0.02 Na2 -ethylenediaminetetraacetic acid (EDTA). The rings were stretched to a preload of 5 g during a 2 hour equilibration period, then stimulated with 1 μM phenylephrine to test for viability and relaxed with 100 nM acetylcholine to test for endothelial function. Stock solutions of phenylphrine, acetylcholine, propranolol, and sodium nitroprusside were prepared daily in water; nifedipine stock solutions were prepared daily in ethanol.
(§4) Alpha-adrenoceptor and endothelial cell function were examined in the third ring from each monkey. In the presence of 0.1 μM propranolol, a cumulative concentration-response curve to phenylephrine was obtained, then the phenylephrine was washed out of the baths and the rings were allowed to relax completely. The rings were subsequently contracted with an EC50 concentration of phenylephrine (1 μM) and, following stabilization of the contraction, the rings were treated with increasing concentrations of acetylcholine, followed by 100 nM sodium nitroprusside.
(§5) Data are presented as mean±SEM. The IC50 and EC50 values were estimated by linearly interpolating from the concentration-response curves. The EC50 values for each ring were used to determine the means for each treatment group.
Phenylephrine concentration-response curves were obtained in iliac rings from all groups of monkeys.

[2] = test system: K^+ depolarized arteries (iliac rings); experiment: Contractile responses to CaCl2 in K^+ depolarized iliac rings from cynomolgus monkeys; parameters: species or system cynomolgus (Macaca fascicularis) monkeys
Description: as §1, §2, §3
(§6) The voltage-dependent calcium channels were studied in one ring from each monkey. The protocol consisted of depleting the cells of calcium by exposing the rings to a Ca-free, EGTA (ethylene glycol-bis(β-aminoethyl ether)N,N,N',N'-tetraacetic acid) PSS (omission of CaCl2 and addition of 0.1 mM EGTA) for 30 minutes. The EGTA was subsequently removed from the tissues with three washes of Ca-free PSS (simple omission of CaCl2). Following that, the rings were bathed in Ca-free, K^+ PSS (omission of CaCl2 and isoosmotic substitution of KCl for NaCl such that the KCl concentration was 110 mM) for 30 minutes. A CaCl2 concentration-response curve was obtained by replacing the bath solution with K^+ PSS containing incremental increases in CaCl2 concentration (0.1, 0.3, 0.5, 1.0, 1.25, 1.6, and 2.5 mM). The maximal contractions, in response to 2.5 mM CaCl2, were then relaxed incrementally with nifedipine. Another iliac ring (fade control) from each monkey was subjected to the same protocol with the exception that the strips were allowed to remain contracted and the nifedipine concentration-response curve was not obtained. Some fade of the CaCl2 -induced force was observed over the time period required for the nifedipine concentration-response curve. This fade was accounted for by decreasing the amount of relaxation observed upon addition of nifedipine by the amount of fade observed in the time control from the same monkey.
as §5
Concentration-response curves to CaCl2 in K^+ depolarized rings were obtained following depletion of tissue calcium by repeated washing in Ca-free PSS first with, then without, EGTA. There were no differences in the responses to CaCl2 among any of the treatment groups (Table 1).

[3] = test system: voltage-dependent calcium channels (iliac rings); experiment: Relaxation responses to nifedipine of CaCl2-contracted iliac rings from cynomolgus monkeys; parameters: species or system cynomolgus (Macaca fascicularis) monkeys; settings: cholesterol-fed monkeys, with captopril
Description: as §1, §2, §3, §6
Data are presented as mean±SEM. The IC50 and EC50 values were estimated by linearly interpolating from the concentration-response curves. […]

[4] = test system: bovine aortic endothelial cells; settings: cited from earlier work
[5] = test system: rat aortic rings; settings: Hartich et al, Shultz et al, cited from earlier work
[6] = test system: phenylephrine-contracted isolated iliac arteries; experiment: Acetylcholine-induced relaxation of phenylephrine-contracted isolated iliac arteries from cynomolgus monkeys; parameters: species or system cynomolgus (Macaca fascicularis) monkeys; settings: for maximum force generated in response to phenylephrine (before acetylcholine): mean±SEM
Description: as §1, §2, §3, §4, §5
For each monkey, the EC50 for acetylcholine relaxation was calculated by linearly interpolating from the concentration-response curves. When 50% relaxation was not achieved, the value of the EC50 was set to 30 μM a value larger than any of the experimental concentrations of acetylcholine).
Linear contrast of mean ranks in the groups were constructed with a variance estimate for the contrast based on the Kruskal-Wallis statistic (Dunn 1964).
In the analyses, the following coefficients were employed: i) for an overall test, the coefficients were 3 for the cholesterol group, 1 for the control group, -1 for the cholesterol+low captopril group, and -3 for the cholesterol+high captopril group, based on prior expectations of likely results; ii) for a test of the cholesterol effect, the coefficients were 1 for the cholesterol group, -1 for the control group, 0 for the cholestrol+low captopril group, and 0 for the cholesterol+high captopril group; iii) for a test of the captopril effect, the coefficients were 0 for the cholesterol group, 1 for the […], 0 for the cholesterol+low captopril group, and -1 for the cholesterol+high captopril group.
All statistical results reported are based on one-sided tests. […]

[7] = test system: guinea pig or rat lungs; settings: guinea pig lungs; cited from earlier work
[8] = Cholesterol + High Captopril (100 mg/kg daily, six months), Mean ± SEM
[9] = Cholesterol + Low Captopril (50 mg/kg daily, six months), Mean ± SEM
[10] = cholesterol-fed monkeys, with captopril

C[C@H](CS)C(=O)N1CCC[C@H]1C(=O)O [captopril, 1-[(2S)-3-mercapto-2-methylpropionyl]-L-proline]
Max Force (phenylephrine-induced contraction) [1, 8]: 19.2 ± 2.2 g | Max Force (phenylephrine-induced contraction) [1, 9]: 18.4 ± 2.8 g | EC50 at 100 mg/kg ([1]; Macaca fascicularis, Cholesterol + High Captopril (100 mg/kg daily, six months), Mean ± SEM, read-out: EC50 (phenylephrine-induced contraction)): 1.3 ± 0.6 µM | EC50 at 50 mg/kg ([1]; Macaca fascicularis, Cholesterol + Low Captopril (50 mg/kg daily, six months), Mean ± SEM, read-out: EC50 (phenylephrine-induced contraction)): 1 ± 0.2 µM | effect on in vitro response of iliac arteries to phenylephrine [1, 10]: neither cholesterol nor captopril affected | Max Force (CaCl2) [2, 8]: 16.8 ± 1.1 g | Max Force (CaCl2) [2, 9]: 16.5 ± 1.8 g | EC50 at 100 mg/kg ([2]; Macaca fascicularis, Cholesterol + High Captopril (100 mg/kg daily, six months), Mean ± SEM): 150 ± 30 µM | EC50 at 50 mg/kg ([2]; Macaca fascicularis, Cholesterol + Low Captopril (50 mg/kg daily, six months), Mean ± SEM): 140 ± 40 µM | effect on in vitro response of iliac arteries to CaCl2 [2, 10]: neither cholesterol nor captopril affected | effect on in vitro response of iliac arteries to nifedipine [3]: neither cholesterol nor captopril affected | release of prostacyclin or EDRF induced by bradykinin ([4]; captopril 10 mu.K (so in the source)): did not affect the release | release of EDRF (direct) [4]: ineffective as releasers of EDRF | endothelium dependent relaxation of normal rat aortic rings ([5]; in vitro): enhance endothelium dependent relaxation | effect of acetylcholine in rat aortic rings after captopril feeding alone ([5]; without cholesterol): potentiate the effects of acetylcholine | EC50 at 100 mg/kg ([6]; Macaca fascicularis, Cholesterol + High Captopril (100 mg/kg daily, six months), N 5, non-responder excluded, Mean ± SEM): 0.1 ± 0.01 µM | endothelium-dependent vasorelaxant effects ([6]; arteries from hypercholesterolemic and atherosclerotic monkeys): enhance endothelium-dependent vasorelaxant effects | shift of EC50 concentration for acetylcholine ([6]; captopril as compared with cholesterol alone): statistically significant effect of captopril as compared with cholesterol; also recorded: significantly shifted the EC50 concentration for acetylcholine to the left | rings not showing 50% relaxation in response to acetylcholine ([6]; cholesterol diet and low dose captopril): One ring did not show 50% relaxation | iliac rings responsive to acetylcholine ([6]; cholesterol fed, high daily dose of captopril, six animals): Five of the iliac rings | maximum force generated in response to phenylephrine (before acetylcholine) ([6]; cholesterol+high captopril group, non-responders excluded): 11.9 ± 2.1 g | maximum force generated in response to phenylephrine (before acetylcholine) ([6]; cholesterol+low captopril group): 12.4 ± 2.2 g | potency and efficacy of acetylcholine in iliac rings from cholesterol-fed monkeys which received captopril ([6]; vs cholesterol diet without captopril): significantly more potent and efficacious | effect on removal of endothelin by guinea pig lungs [7]: without being affected by captopril
